Data published in patent publication US8658801B2, “Pesticides containing a bicyclic bisamide structure” (Syngenta Crop Protection, LLC, priority 2006, dated 2014).
Read-outs that look alike come from different tables or passages of the source.

Legend:
[1] = test system: Plutella xylostella (Diamond Back Moth); assay: Example B14: comparison with state of the art, Plutella xylostella, larvicide, feeding/residual contact, preventive; assay type: in vivo
Description: Plutella xylostella (Diamond Back Moth)
(Larvicide, Feeding/Residual Contact Activity, Preventive)
24-well microtiter plate (MTP) with artificial diet is treated with test solutions by pipetting. After drying, the MTP's are infested with larvae (L2)(10-15 per well). After an incubation period of 5 days, samples are checked for larval mortality, antifeedant and growth regulation.

Heliothis virescens = assay: Example B15: comparison with state of the art, Heliothis virescens ovo-larvicide test; assay type: in vivo; conditions: for inhibition at 0.8 ppm / inhibition at 3.1 ppm / inhibition at 12.5 ppm / inhibition at 50 ppm: Heliothis virescens, 96 h, read-out: Ovo-larvicidal activity (%) after 4 days
Description: Activity Against Heliothis virescens (Ovo-Larvicide Test)
(§1) Eggs (0-24 h old) are placed in 24-well microtiter plate on artificial diet and treated with test solutions by pipetting. After an incubation period of 4 days, samples are checked for egg mortality, larval mortality, and growth regulation.

[2] = test system: Aphis aossypii (Cotton Aphid); assay: Example B13: activity against cotton aphid, mixed population, systemic/feeding; assay type: in vivo; conditions: 144 h, 6 days, roots in test solution (systemic)
Text: Activity Against Aphis aossypii (Cotton Aphid)
(§2) (Mixed Population, Systemic/Feeding)
(§3) 6 days later, samples are checked for mortality.

[3] = test system: Myzus persicae (Green Peach Aphid); assay: Example B5: activity against Myzus persicae, mixed population, feeding/residual contact, preventive (sunflower leaf discs); conditions: foliar, 144 h, read-out: activity
[4] = test system: Heliothis virescens (Tobacco Budworm); assay: Example B2: activity against Heliothis virescens, ovo-larvicide, feeding/contact, curative; assay type: in vivo; conditions: 96 h, 4 days incubation, eggs 0-24 h old
Description: Activity Against Heliothis virescens (Tobacco Budworm)
(Ovo-Larvicide, Feeding/Contact Activity, Curative)
as §1

[5] = test system: Thrips tabaci (Onion Thrips); assay: Example B7: activity against Thrips tabaci, mixed population, feeding/residual contact, preventive; conditions: 144 h, read-out: activity
[6] = test system: Myzus persicae (Green Peach Aphid); assay: Example B6: activity against Myzus persicae, mixed population, systemic/feeding, curative (pea seedling roots); conditions: 144 h, read-out: activity
[7] = test system: Plutella xylostella (Diamond Back Moth); assay: Example B3: Plutella xylostella, larvicide, feeding/residual contact, preventive (artificial diet MTP); assay type: in vivo; conditions: 120 h, 5 days incubation, L2 larvae
Outline: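 Artificial diet in multiwell plates treated with test solution, dried, then infested with 10–15 L2 larvae per well. After 5 days, larval mortality, antifeedant effect and growth regulation were scored.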

[8] = test system: Diabrotica balteata (Corn Root Worm); assay: Example B4: Diabrotica balteata, larvicide, feeding/residual contact, preventive; assay type: in vivo; conditions: 120 h, 5 days incubation, L2 larvae
Outline: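 Artificial diet treated with test solution, dried, then infested with 6-10 L2 larvae per well. Larval mortality, antifeedant effect and growth regulation checked after 5 days of incubation.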

[9] = test system: Aphis craccivora (Pea Aphid); assay: Example B10: activity against Aphis craccivora, mixed population, contact/feeding; assay type: in vivo; conditions: 144 h, 6 days after treatment, spray (contact/feeding)
Text: (§4) Activity Against Aphis craccivora (Pea Aphid)
(Mixed Population, Contact/Feeding)
6 days after treatment, samples are checked for mortality.

[10] = test system: Aphis craccivora (Pea Aphid); assay: Example B11: activity against Aphis craccivora, mixed population, systemic/feeding; assay type: in vivo; conditions: 144 h, 6 days, roots in test solution (systemic)
Text: as §4, §2, §3

[11] = test system: Frankliniella occidentalis (Western Flower Thrips); assay: Example B9: activity against Frankliniella occidentalis (bean leaf discs or bean plants); assay type: in vivo; conditions: foliar, 6 days (leaf discs) or 14 days (plants) after infestation
Outline: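 Bean leaf discs on agar or whole bean plants sprayed with diluted test solutions, then infested with a mixed thrips population after drying. Population reduction versus untreated assessed 6 days (discs) or 14 days (plants) after infestation.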

[12] = test system: Spodoptera littoralis (Egyptian Cotton Leafworm); assay: Example B1: activity against Spodoptera littoralis, larvicide, feeding/residual contact, preventive (cotton leaf discs); assay type: in vivo; conditions: foliar, 72 h, 3 days after treatment, L1 larvae
[13] = test system: Cydia pomonella (Codling Moth); assay: Example B8: activity against Cydia pomonella (paraffin-coated diet cubes); assay type: in vivo; conditions: 336 h, 14 days incubation at 26° C.
Description: Activity Against Cydia pomonella (Codling Moth)
Standard Cydia diet cubes (1.5 cm width) are pierced with a tooth-pick and are immersed in liquid paraffin (ca. 80° C.). After the paraffin coat has hardened, an aqueous emulsion containing 400 ppm of active ingredient is applied using a De Vilbis sprayer (25 ml, 1 bar). After the spray coating has dried, the cubes are put into plastic containers which are then populated with two freshly hatched Cydia pomonella (1st instar). The containers are then closed with a plastic cap. After 14 days incubation at 26° C. and 40-60% relative humidity, the survival rate of the caterpillars as well as their growth regulation is determined. In this test, compounds listed in Table P above show good activity. In particular compounds P.10, P.11, P.12, P.18, P.19, P.20, P.29, P.30, P.31, P.32, P.33, P.34, P.35, P.37, P.38, P.39, P.42, and P.43 show an activity of over 80% at a concentration of 400 ppm.

[14] = especially at 12.5, 3.1 and 0.8 ppm

SMILES	melting point [°C]	pest or weed control at 400 ppm [2] [%]	pest or weed control at 400 ppm [3] [%]	pest or weed control at 400 ppm [4] [%]	pest or weed control at 400 ppm [5] [%]	pest or weed control at 400 ppm [6] [%]	pest or weed control at 400 ppm [7] [%]	pest or weed control at 400 ppm [8] [%]	pest or weed control at 400 ppm [9] [%]	pest or weed control at 400 ppm [10] [%]	pest or weed control at 400 ppm [11] [%]	pest or weed control at 400 ppm [12] [%]	further results
Cc1cc2cn[nH]c2c(C(=O)NC2(C3CC3)CC2)c1NC(=O)c1cc(C(F)F)nn1-c1ncccc1Cl	224 to 227												
Cc1nc2ccccc2c(C(=O)NC(C)C)c1NC(=O)c1cc(C(F)(F)F)nn1-c1ncccc1Cl [Compound T81.3, reference compound]													Death rate (%) after 5 days ([1]; 0.8 ppm): 0%; Death rate (%) after 5 days ([1]; 3.1 ppm): 0%; Death rate (%) after 5 days ([1]; 12.5 ppm): 60%; Death rate (%) after 5 days ([1]; 50 ppm): 100%; inhibition at 0.8 ppm (Heliothis virescens): 0%; inhibition at 3.1 ppm (Heliothis virescens): 25%; inhibition at 12.5 ppm (Heliothis virescens): 65%; inhibition at 50 ppm (Heliothis virescens): 80%
C#Cc1cc2cn[nH]c2c(C(=O)NC(C)C)c1NC(=O)c1cc(C(F)(F)F)nn1-c1ncccc1Cl [Example 34, 6-{[2-(3-chloro-pyridin-2-yl)-5-trifluoromethyl-2H-pyrazole-3-carbonyl]-amino}-5-ethynyl-1H-indazole-7-carboxylic acid isopropylamide]	226 to 229												
CNC(=O)c1c(NC(=O)c2cc(C(F)(F)F)nn2-c2ncccc2Cl)ccc2ncccc12 [Example 46, 6-{[2-(3-chloro-pyridin-2-yl)-5-trifluoromethyl-2H-pyrazole-3-carbonyl]-amino}-quinoline-5-carboxylic acid methylamide]	210 to 211												
COc1cc(C(=O)Nc2c(C)cc3cn[nH]c3c2C(=O)NC2(C3CC3)CC2)n(-c2ncccc2Cl)n1 [P.28, 6-{[2-(3-chloro-pyridin-2-yl)-5-methoxy-2H-pyrazole-3-carbonyl]-amino}-5-methyl-1H-indazole-7-carboxylic acid bicyclopropyl-1-ylamide]		> 80	> 80	> 80	> 80	> 80	> 80	> 80	> 80	> 80	> 80	> 80	
CCNC(=O)c1c(NC(=O)c2cc(C(F)(F)F)nn2-c2ncccc2Cl)c(Cl)cc2cn[nH]c12 [P.30]		> 80	> 80	> 80		> 80	> 80	> 80	> 80	> 80	> 80	> 80	pest or weed control at 400 ppm [13]: > 80%
CC(C)NC(=O)c1c(NC(=O)c2cc(Br)nn2-c2ncccc2Cl)c(Cl)cc2cn[nH]c12 [P.42]		> 80	> 80	> 80	> 80	> 80	> 80	> 80	> 80	> 80	> 80	> 80	pest or weed control at 400 ppm [13]: > 80%
CC(C)NC(=O)c1c(NC(=O)c2cc(Cl)nn2-c2ncccc2Cl)c(Cl)cc2cn[nH]c12 [P.43]		> 80	> 80	> 80	> 80	> 80	> 80	> 80	> 80	> 80	> 80	> 80	pest or weed control at 400 ppm [13]: > 80%
Cc1cc2cn[nH]c2c(C(=O)NC(C)C)c1NC(=O)c1cc(C(F)(F)F)nn1-c1ncccc1Cl [P.44]		> 80	> 80	> 80	> 80	> 80	> 80	> 80	> 80	> 80	> 80	> 80	
COc1cc(C(=O)Nc2c(Cl)cc3cn[nH]c3c2C(=O)NC2(C3CC3)CC2)n(-c2ncccc2Cl)n1 [P.47]		> 80	> 80	> 80	> 80	> 80	> 80	> 80	> 80	> 80	> 80	> 80	
CC(C)NC(=O)c1c(NC(=O)c2cc(C(F)(F)F)nn2-c2ncccc2Cl)ccc2cccnc12 [P.73, 7-{[2-(3-chloro-pyridin-2-yl)-5-trifluoromethyl-2H-pyrazole-3-carbonyl]-amino}-quinoline-8-carboxylic acid isopropylamide]	225 to 226												
Cc1cc2ncccc2c(C(=O)NC(C)C)c1NC(=O)c1cc(C(F)(F)F)nn1-c1ncccc1Cl [P.78, 6-{[2-(3-chloro-pyridin-2-yl)-5-trifluoromethyl-2H-pyrazole-3-carbonyl]-amino}-7-methyl-quinoline-5-carboxylic acid isopropylamide]				> 80			> 80	> 80					Death rate (%) after 5 days ([1]; 0.8 ppm): 50%; Death rate (%) after 5 days ([1]; 3.1 ppm): 100%; Death rate (%) after 5 days ([1]; 12.5 ppm): 100%; Death rate (%) after 5 days ([1]; 50 ppm): 100%; insecticidal action compared with the compound from the state of the art (T81.3) [1, 14]: substantially better insecticidal action; inhibition at 0.8 ppm (Heliothis virescens; 0.8 ppm): 50%; inhibition at 3.1 ppm (Heliothis virescens; 3.1 ppm): 50%; inhibition at 12.5 ppm (Heliothis virescens; 12.5 ppm): 80%; inhibition at 50 ppm (Heliothis virescens; 50 ppm): 80%; insecticidal action compared with the compound from the state of the art (T81.3) (Heliothis virescens; [14]): substantially better insecticidal action
C#Cc1cc2cn[nH]c2c(C(=O)NC(C)C)c1NC(=O)c1cc(C(F)F)nn1-c1ncccc1Cl [P.80]	233 to 236												
C#Cc1cc2cn[nH]c2c(C(=O)NC2(C3CC3)CC2)c1NC(=O)c1cc(C(F)F)nn1-c1ncccc1Cl [P.81]	218 to 221												
